Results on three molecules are retold here after patent publication US9566290B2, “Boron-containing small molecules” (Anacor Pharmaceuticals, Inc., priority 2005, dated 2017).

Data set [1] has as its system bacterial isoleucyl-tRNA synthetases. The note with it: cited from earlier work.
Data set [2] in a line: Water solubility (table of physicochemical properties).
Data set [3] has as its system S. cerevisiae C10 resistant mutants (CDC60 editing domain mutations). Nature of the data set: MIC (NCCLS M27), spontaneous and EMS induced C10 resistant mutants. It counts as cell-based, Saccharomyces cerevisiae. The note with it: for MIC: Saccharomyces cerevisiae, Table 2. On the procedure:
(§1) The haploid Saccharomyces cerevisiae strain ATCC 201388 was used in the selection of C10 resistant mutants. Spontaneous and EMS-induced resistant mutants were isolated from YPD agar plates containing 4×, 8×, 16×MIC of C10. All minimal inhibitory concentrations (MIC) were determined using NCCLS protocol M27 with the exception of using YPD or synthetic defined media. All yeast and molecular genetic manipulations were essentially performed as described by Guthrie C., et al., Methods in Enzymology, 350: Part B, (2002).
Resistant mutants appeared after 2 d incubation at 30° C. Frequency of resistance was determined by dividing the number of resistant mutants by the total number of cells plated as determined by plating dilutions of the overnight culture on YPD plates.
A 2.5 mL of the overnight culture, which was grown in YPD media, was centrifuged at 700×g for 5 minutes. The cell pellet was resuspended in 10 mL 50 mM potassium phosphate buffer, pH 7.0. The cell suspension was centrifuged again and the cell pellet was resuspended in phosphate buffer to obtain a cell density of 5×10^7 cells/mL as determined by counting the cells using a Petroff Hausser Counting Chamber (Horsham, Pa. USA). The cell suspension was shaken with 300 μL of EMS (Alfa Aesar, Ward Hill, Mass., USA) for 30 min. at 30° C. The mutagenesis was stopped by adding 10% (w/v) sodium thiosulfate (Sigma-Aldrich, St. Louis, Mo., USA), and the cells were pelleted by centrifugation at 700×g for 5 min. and resuspended in 1 mL sterile H2O. This was repeated once more before the cells were plated on YPD agar plates containing 1.6 μg/mL of C10.
(§2) The minimal inhibitory concentration (MIC) was essentially performed following the NCCLS guidelines outlined in the M27 protocol with the exception of using YPD or synthetic defined media (SDM).

Data set [4] is classed as in vitro ADME, human. How it is done: C10, 5-fluoro-1,3-dihydro-1-phenyl-2,1-benzoxaborole, C1, and 5-fluoro-1,3-dihydro-1-(3-hydroxymethylphenyl)-2,1-benzoxaborole, formulated at 10% w/v in ethanol, were tested. A single aliquot (10 μl) of each formulation was dosed to the top of human nail plates using the nail penetration procedure described below, and allowed to stand for 3-days. The dosed area was washed, and then the cotton ball bed supporting the nail and the nail samples were collected at the end of the incubation period, stored at 4° C. and analyzed for drug using LC/MS/MS.
Details of the nail incubation have been previously described^9, 10. […] The supporting cotton ball under the nail was wetted by normal saline providing moisture for the nail plate, and the degree of hydration was monitored and controlled during the experiment. […]
LC/MS/MS (API3000, Applied Biosystems, Foster City, Calif.) was used to quantitate the amounts of non-radiolabeled oxaboroles, C10, 5-fluoro-1,3-dihydro-1-phenyl-2,1-benzoxaborole, C1, and 5-fluoro-1,3-dihydro-1-(3-hydroxymethylphenyl)-2,1-benzoxaborole in samples from the nail penetration studies. […] After centrifugation, the filtrate from the cotton ball samples was transferred to autosampler vials and analyzed by LC/MS/MS. […]

The nature of data set [5]: Nail penetration, 14-day dosing of radiolabeled compound (Hui protocol). The following applies: washing, nail samples and supporting bed cotton ball samples; 14-day treatment. The class given is in vitro ADME. On the procedure: Two nail penetration studies were performed based on the protocol in Hui et al., Journal of Pharmaceutical Sciences, 91(1): 189-195 (2002) (“Hui protocol”). The purpose of this study was to determine and compare the penetration and distribution of C10 in vehicle into the human nail plate in vitro relative to 8% ciclopirox w/w in commercial lacquer (Penlac®).
The study was composed of two groups. The compositions (weight %) of the dosage formulations are as follows: […]
Healthy human finger nail plates were collected from adult human cadavers and stored in a closed container at 0-4° C. Before the experiment, the nail plates were gently washed with normal saline to remove any contamination, then re-hydrated by placing them for three hours on a cloth wetted with normal saline. The nail samples were randomly selected into four groups.
Radioactivity of each group is approximately 0.19±0.01 and 0.22±0.03 μCi/10 μL solutions respectively, for ^14C—C10 (group A), and ^14C-ciclopirox (group C).
Surface washing was started in morning 10 min prior to next dosing, the surface of the nail was washed with cotton tips in a cycle, as follows:
A Teflon one-chamber diffusion cell (PermeGear, Inc., Hellertown, Pa.) was used to hold each nail. To approximate physiological conditions, a small cotton ball wetted with 0.1 mL normal saline was placed in the chamber to serve as a nail bed and provide moisture for the nail plate. Every 3 days, 0.1 mL normal saline was injected through the inlet into the chamber to keep the cotton ball wet. The nail plate was placed on a ledge inside the receptor (1.0 cm in diameter and 0.5 cm high). The ventral (inner) surface of the nail was placed face down and rested on the wet cotton ball. The cells were placed on a platform in a large glass holding tank filled with saturated sodium phosphate solution to keep the cells at a constant humidity of 40%.
After completion of the incubation phase, the nail plate was transferred from the diffusion cell to a clean copper nail holder for sampling process. The nail plate was inverted so that the ventral (nail bed) surface now faced up and the dorsal (outer) dosed surfaced faced down. The copper nail holder has an opening as it sits on top of the stage. When the sampling process initiated, the coarse adjustment was adjusted to move the position of the stage until the nail plate was just touching the tip of the cutter. Then the drill was turned on and the fine adjustment was turned to push the stage closer to the drill, removing a nail core sample. After the above process, approximate 0.40-0.50 mm in depth and 7.9 mm in diameter nail pulverized samples were harvested from the center of the ventral (nail bed) surface of the nail.
The powdered nail samples were collected into a glass scintillation vial and weighted. Aliquots of 5.0 mL Packard soluene-350 (Packard Instrument Company, Meriden, Conn.) was added to the scintillation vial to dissolve the powder. The upper part, the intermediate and dorsal layers of the center of the nail, including the area of application of the dose was cut in the same diameter as the sampled area and was then placed into a glass scintillation vial with 5.0 mL packard soluene-350. The rest of the nail was also placed in a glass scintillation vial with 5.0 mL packard soluene-350.
All radioactivity measurements were conducted with a Model 1500 Liquid Scintillation Counter (Packard Instrument Company, Downer Grove, Ill.). The counter was audited for accuracy using sealed samples of quenched and unquenched standards as detailed by the instrument manual. The ^14C counting efficiency is equal to or greater than 95%. All nail samples pre-treated with packard soluene-350 were incubated at 40° C. for 48 hours followed by the addition of 10 mL scintillation cocktail (HIONIC-FLUOR, Packard Instrument Company, Meriden, Conn.). […]

Data set [6] concerns Saccharomyces cerevisiae strain ATCC 201388. The data set can be described thus: MIC (NCCLS M27, YPD or synthetic defined media), haploid parental strain. The class given is cell-based. The following applies: Saccharomyces cerevisiae, ATCC201388, Table 2; ATCC201388; read-out: MIC. How it is done:
as §1, §2

Converted amounts (≈) assume the structure as drawn.

With `C/C(=C\C(=O)OCCCCCCCCC(=O)O)C[C@@H]1OC[C@H](C[C@@H]2O[C@H]2[C@@H](C)[C@H](C)O)[C@@H](O)[C@H]1O` [Mupirocin, mupirocin], the “activity against the human homolog versus bacterial isoleucyl-tRNA synthetases (times less active)” value in data set [1] is on record as “more than 1,000 times”.

In general, solubility refers to the dissolved amount per volume that the medium holds. Lower therefore signals a poorly soluble substance. As for `OB1OCc2cc(Cl)ccc21` [C1, 5-chlorobenzo[c][1,2]oxaborol-1(3H)-ol], the solubility in data set [2] was greater than 100 µg/mL.

A word on the MIC: it is the lowest concentration found to suppress growth. Regarding `Cc1cc(C2CCCCC2)n(O)c(=O)c1` [ciclopirox], the “resistance of C10 resistant mutants to other antifungals, in words” value in data set [3] was “not resistant”. Moreover, the MIC in data set [3] (C10 resistant mutant (C)), in data set [3] (C10 resistant mutant (G)), in data set [3] (C10 resistant mutant (H)) and in data set [6] was 0.5 µg/mL (≈ 2.41 µM) in each case. For the same molecule, the “penetration of the nail plate, in words” value in data set [4] is recorded as “penetrates the nail plate poorly”. The “Cumulative radioactivity recoveries of carbon-14” value in data set [5] is recorded as 89±1.56% of applied dose.
